Data as given in US20230339854A1, “Negative Allosteric Modulation of GluN3-Containing N-Methyl-D-Aspartate Receptors” (Emory University, priority 2020, published 2023).
“Also recorded” adds a separate entry of the source. Where two headings read alike, the source gives them in different places. One block for each molecule: values may come before it.

Columns and labels:
[1] = molecular target: T1, human GluN1^FA,TL/GluN3A receptors (Homo sapiens, UniProt Q8TCU5); test: Two-electrode voltage-clamp recordings of GluN1^FA,TL/GluN3A receptors in Xenopus oocytes; format: cell-based; details: for Slope: concentration-response curve; for Slope / minimum: 1000 μM glycine; for % Inhibition GluN1^FATL/GluN3A / Max Inhibition: fitted maximum at saturating test compound; for minimum: residual response at saturating concentration; for hGluN1^FA,TL/hGluN3A (100 × Idrug/Icontrol): @ 10 μM; for Max Inhibition: 100 × (1 − Idrug/Icontrol); for remaining activity at 30 µM: read-out: hGluN1^FA,TL/hGluN3A (100 × Idrug/Icontrol at 30 μM drug)
T1 construct: Human GluN3A (NP_597702.2) and rat GluN3B (NP_579842.2) were synthesized and subcloned into SP6 plasmids; expressed in transfected cells; host or cells: Xenopus laevis oocytes, cRNA injection (GluN1:GluN3 1:3)
Summary of the method: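 Human GluN1 with human GluN3A cRNA (1:3) in oocytes, recorded 2-5 days post-injection at 23° C, holding −40 mV, in Ba2+-containing recording solution pH 7.4. Compounds screened at 10 or 30 μM; those inhibiting >20% given concentration-response fits for IC50, Hill slope and residual inhibition.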

[2] = molecular target: T2, rat GluN1-4a/GluN3B receptors (Rattus norvegicus, UniProt Q8VHN2); test: Two-electrode voltage-clamp recordings of GluN1-4a/GluN3B receptors in the presence of CGP-78608 (Xenopus oocytes); format: cell-based; details: @ 10 μM drug; 0.5 μM CGP-78608
T2 construct: Human GluN3A (NP_597702.2) and rat GluN3B (NP_579842.2) were synthesized and subcloned into SP6 plasmids; expressed in transfected cells; host or cells: Xenopus laevis oocytes, cRNA injection
Description: (§1) cDNA encoding human wild-type (WT) GluN1-1a (GenBank accession numbers NP_015566, hereafter GluN1) and rat GluN1-1a (NP_058706.1) were synthesized and subcloned into pGEMHE plasmid; some experiments used the rat splice variant GluN1-4a (NP_001257531.1). Human GluN3A (NP_597702.2) and rat GluN3B (NP_579842.2) were synthesized and subcloned into SP6 plasmids. For most experiments, human GluN1 was co-expressed with human GluN3A, except for mutagenesis experiments where rat GluN1 was co-expressed with human GluN3A. Rat GluN1-4a was always expressed with rat GluN3B.
(§2) Defolliculated Xenopus laevis oocytes (stage V-VI) were obtained from Ecocyte BioScience (Austin, Texas), or prepared from commercially available Xenopus ovaries (Xenopus 1, Dexter, MI) as previously described (Hansen, et al., Mol. Pharmacol., 2013). A Drummond Nanoject II (Broomall, PA) was used to inject oocytes with cRNAs encoding GluN1 and GluN3 at a 1:3 ratio in RNase-free water. The cRNA was diluted as needed to give responses with amplitudes ranging between 200-2000 nA (0.2-10 ng total cRNA). Following cRNA injection, the oocytes were stored at 15-19° C. in Barth's solution that contained (in mM) 88 NaCl, 2.4 NaHCO3, 1 KCl, 0.33 Ca(NO3)2, 0.41 CaCl2), 0.82 MgSO4, and 5 Tris-HCl (pH 7.4 with NaOH), supplemented with 1 μg/ml streptomycin (Invitrogen, Carlsbad, CA) and 100 μg/ml gentamicin (Fisher Scientific, Pittsburgh, PA). Recordings were performed 2-5 days following cRNA microinjection at room temperature (23° C.) using a two-electrode voltage-clamp amplifier (OC725, Warner Instrument, Hamilton, CT). The signal was low-pass filtered at 10-20 Hz (4-pole, −3 dB Bessel) and digitized at the Nyquist rate using PCI-6025E or USB-6212 BNC data acquisition boards (National Instruments, Austin, TX) using EasyOocyte (http://www.easyoocyte.io/). Oocytes were placed in a custom-made chamber and continuously perfused (2.5 ml/min) with oocyte recording solution containing (in mM) 90 NaCl, 1 KCl, 10 HEPES, 0.5-1.0 BaCl2, and 0.01 EDTA (pH 7.4 with NaOH). Solutions were applied by gravity, and solution exchange was controlled through a rotary valve (Hamilton, Reno, NV). Recording electrodes were filled with 0.3-3.0 M KCl, and current responses were recorded at a holding potential of −40 mV.
(§3) Response (%)=(100−minimum)/(1+([concentration]/IC50)^nH)+minimum (2) • where nH is the Hill slope, IC50 is the concentration that produces a half-maximal effect, and minimum is the degree of residual inhibition at a saturating concentration of the negative allosteric modulator.
(§4) Selected compounds were also screened in the same assay as EU1180-438 to determine their effect on GluN3B.

[3] = test system: GluN1/GluN3 receptors; details: hydrochloride; cited from earlier work
[4] = test system: GluN1/GluN2 NMDA receptors (GluN2A, GluN2B, GluN2C, GluN2D); test: Recombinant GluN1/GluN2 NMDA receptors in Xenopus oocytes (selectivity); format: cell-based, rat
[5] = molecular target: T3, rat GluN1-4a/GluN3B receptors (Rattus norvegicus, UniProt P35439+Q8VHN2); test: Two-electrode voltage-clamp recordings of GluN1-4a/GluN3B receptors in the presence of CGP-78608 (Xenopus oocytes); format: cell-based; details: 0.5 μM CGP-78608
T3 construct: Human GluN3A (NP_597702.2) and rat GluN3B (NP_579842.2) were synthesized and subcloned into SP6 plasmids; expressed in transfected cells; host or cells: Xenopus laevis oocytes, cRNA injection
Description: as §1, §2, §3, §4

[6] = molecular target: GluN1 (Homo sapiens, UniProt Q05586); details: read-out: EC50 (glycine binding GluN1); cited from earlier work
[7] = pH 7.4, holding potential −40 mV, read-out: EC50, (95% CI) GluN1^FATL/GluN3A
[8] = responses activated by 1000 μM glycine, pH 7.4, read-out: IC50
[9] = hGluN1^FA,TL/hGluN3A, read-out: IC50
[10] = hGluN1^FA,TL/hGluN3A, read-out: IC50 (95% CI) GluN3A

T3 sequence (Q8VHN2 25-1002, other chains not shown): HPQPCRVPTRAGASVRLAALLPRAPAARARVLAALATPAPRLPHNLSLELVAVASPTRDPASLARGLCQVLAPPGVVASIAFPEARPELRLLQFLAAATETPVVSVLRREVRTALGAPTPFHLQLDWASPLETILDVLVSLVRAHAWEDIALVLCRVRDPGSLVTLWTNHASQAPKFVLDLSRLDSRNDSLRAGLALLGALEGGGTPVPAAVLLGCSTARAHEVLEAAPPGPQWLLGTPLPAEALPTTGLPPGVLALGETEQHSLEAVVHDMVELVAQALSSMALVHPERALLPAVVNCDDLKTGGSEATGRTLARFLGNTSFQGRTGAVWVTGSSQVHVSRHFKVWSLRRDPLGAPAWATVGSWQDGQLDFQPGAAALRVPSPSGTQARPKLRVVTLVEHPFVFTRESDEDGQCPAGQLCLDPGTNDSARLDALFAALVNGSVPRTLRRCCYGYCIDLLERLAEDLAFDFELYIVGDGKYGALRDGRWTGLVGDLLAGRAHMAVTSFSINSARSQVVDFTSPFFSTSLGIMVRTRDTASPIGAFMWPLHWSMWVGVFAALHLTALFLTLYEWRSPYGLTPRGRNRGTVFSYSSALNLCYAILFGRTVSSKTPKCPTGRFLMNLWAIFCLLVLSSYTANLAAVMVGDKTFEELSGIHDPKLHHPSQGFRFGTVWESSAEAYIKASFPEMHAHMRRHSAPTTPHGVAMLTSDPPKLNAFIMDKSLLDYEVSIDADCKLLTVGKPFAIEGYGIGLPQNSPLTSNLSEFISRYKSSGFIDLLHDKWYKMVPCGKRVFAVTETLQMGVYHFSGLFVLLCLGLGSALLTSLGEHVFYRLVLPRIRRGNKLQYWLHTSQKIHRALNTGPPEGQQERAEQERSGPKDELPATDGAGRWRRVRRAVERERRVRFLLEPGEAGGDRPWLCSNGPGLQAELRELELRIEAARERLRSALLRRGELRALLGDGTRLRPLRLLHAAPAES
T2 sequence (Q8VHN2 25-1002, other chains not shown): as above

Compound: COc1ccc(OCC(c2ccc(OC)cc2)N2Cc3ccccc3C2=O)cc1 (single isomer, unassigned; (+)) [(+) EU1180-438, 2-(2-(4-methoxyphenoxy)-1-(4-methoxyphenyl)ethyl)isoindolin-1-one]
Slope [1]: 1.2 | % Inhibition GluN1^FATL/GluN3A ([1]; pH 7.4): 96%^a, (n = 22) | IC50 [1, 7]: 7.1 µM | minimum [1]: 4% | IC50 [1, 8]: 7.1 µM | rat GluN1-4a/GluN3B + CGP (100 × Idrug/Icontrol) [2]: 28% @ 10 μM drug

Compound: C[C@@H](NCc1cc(Br)cc2[nH]c(=O)c(=O)[nH]c12)P(=O)(O)O.Cl [CGP-78608, [(1S)-1-[[(7-bromo-1,2,3,4-tetrahydro-2,3-dioxo-5-quinoxalinyl)methyl]amino]ethyl] phosphonic acid hydrochloride]
effect on activation of GluN1/GluN3 receptors [3]: dramatically enhance activation of GluN1/GluN3 receptors; also recorded: strongly enhance GluN1/GluN3A current responses

Compound: COc1ccc(OCC(c2ccccc2)N2CCc3ccccc3C2=O)cc1 (stereo not drawn) [EU1180-488, 2-(2-(4-methoxyphenoxy)-1-phenylethyl)-3,4-dihydroisoquinolin-1(2H)-one]
Max Inhibition [1]: 88% | IC50 [1, 10]: 3.29 µM | rat GluN1-4a/GluN3B + CGP (100 × Idrug/Icontrol) [2]: 38% @ 10 μM drug | IC50 [5]: 3.43 µM | activity toward recombinant GluN1/GluN2 NMDA receptors (GluN2A-D) ([4]; 30 μM): no detectable activity

Compound: Cc1cccc(OCC(c2ccc(OC(C)C)cc2)N2Cc3ccccc3C2=O)n1 (stereo not drawn) [EU1180-508, 2-(1-(4-isopropoxyphenyl)-2-((6-methylpyridin-2-yl)oxy)ethyl)isoindolin-1-one]
hGluN1^FA,TL/hGluN3A (100 × Idrug/Icontrol) [1]: 28% | IC50 [1, 9]: 3.93 µM | activity toward recombinant GluN1/GluN2 NMDA receptors (GluN2A-D) [4]: None of them showed any activity

Compound: Cc1cccc(OCC(c2ccc(OC(C)C)cc2)N2Cc3ccc(C(F)(F)F)cc3C2=O)n1 (stereo not drawn) [EU1180-511]
remaining activity at 30 µM [1]: 94% | activity toward recombinant GluN1/GluN2 NMDA receptors (GluN2A-D) [4]: None of them showed any activity

Compound: NCC(=O)O [glycine]
EC50 [6]: 0.1 to 1 µM

Second part, the molecule after the results:

Slope [1]: 1.4 | % Inhibition GluN1^FATL/GluN3A ([1]; pH 7.4): 84%^a, (n = 20) | IC50 [1, 7]: 13 µM | minimum [1]: 16% | IC50 [1, 8]: 13 µM | rat GluN1-4a/GluN3B + CGP (100 × Idrug/Icontrol) [2]: 70% @ 10 μM drug
Compound: COc1ccc(OCC(c2ccc(OC)cc2)N2Cc3ccccc3C2=O)cc1 (single isomer, unassigned; (-)) [(−) EU1180-438, 2-(2-(4-methoxyphenoxy)-1-(4-methoxyphenyl)ethyl)isoindolin-1-one]

hGluN1^FA,TL/hGluN3A (100 × Idrug/Icontrol) [1]: 57% | Max Inhibition [1]: 54% | IC50 [1, 9]: 3.12 µM | IC50 [1, 10]: 3.12 µM | activity toward recombinant GluN1/GluN2 NMDA receptors (GluN2A-D) ([4]; 30 μM): no detectable activity
Compound: COc1ccc(OCC(c2ccc(OC(C)C)cc2)N2Cc3ccccc3C2=O)cc1 (stereo not drawn) [EU1180-481, 2-(1-(4-isopropoxyphenyl)-2-(4-methoxyphenoxy)ethyl)isoindolin-1-one]

Max Inhibition [1]: 78% | IC50 [1, 10]: 10.8 µM | rat GluN1-4a/GluN3B + CGP (100 × Idrug/Icontrol) [2]: 42% @ 10 μM drug | IC50 [5]: 6.49 µM | activity toward recombinant GluN1/GluN2 NMDA receptors (GluN2A-D) ([4]; 30 μM): no detectable activity
Compound: COc1ccc(OCC(c2ccccc2)N2Cc3ccccc3C2=O)cc1 (stereo not drawn) [EU1180-487, 2-(2-(4-methoxyphenoxy)-1-phenyl-ethyl)isoindolin-1-one]

Max Inhibition [1]: 44% | IC50 [1, 10]: 10.8 µM | rat GluN1-4a/GluN3B + CGP (100 × Idrug/Icontrol) [2]: 31% @ 10 μM drug | IC50 [5]: 3.57 µM | activity toward recombinant GluN1/GluN2 NMDA receptors (GluN2A-D) ([4]; 30 μM): no detectable activity
Compound: COc1ccc(OCC(c2ccc(OC)cc2)N2CCc3ccccc3C2=O)cc1 (stereo not drawn) [EU1180-489, 2-(2-(4-methoxyphenoxy)-1-(4-methoxyphenyl)ethyl)-3,4-dihydroisoquinolin-1(2H)-one]

Max Inhibition [1]: 3% | activity toward recombinant GluN1/GluN2 NMDA receptors (GluN2A-D) ([4]; 30 μM): no detectable activity
Compound: COc1ccc(OCC(c2ccc(OC)c(OC)c2)N2Cc3ccccc3C2=O)cc1 (stereo not drawn) [EU1180-494, 2-(1-(3,4-dimethoxyphenyl)-2-(4-methoxyphenoxy)ethyl)isoindolin-1-one]

hGluN1^FA,TL/hGluN3A (100 × Idrug/Icontrol) [1]: 67% | IC50 [1, 9]: 2.1 µM | activity toward recombinant GluN1/GluN2 NMDA receptors (GluN2A-D) [4]: None of them showed any activity
Compound: CCOc1ccc(OCC(c2ccc(OC(C)C)cc2)N2Cc3ccccc3C2=O)cc1 (stereo not drawn) [EU1180-499, 2-(2-(4-ethoxyphenoxy)-1-(4-isopropoxyphenyl)ethyl)isoindolin-1-one]

hGluN1^FA,TL/hGluN3A (100 × Idrug/Icontrol) [1]: 81% | activity toward recombinant GluN1/GluN2 NMDA receptors (GluN2A-D) [4]: None of them showed any activity
Compound: Cc1cccc(OCC(c2ccc(OC(C)C)cc2)N2Cc3ccc(Cl)cc3C2=O)n1 (stereo not drawn) [EU1180-509, 6-chloro-2-(1-(4-isopropoxyphenyl)-2-((6-methylpyridin-2-yl)oxy)ethyl)isoindolin-1-one]

remaining activity at 30 µM [1]: 94% | activity toward recombinant GluN1/GluN2 NMDA receptors (GluN2A-D) [4]: None of them showed any activity
Compound: Cc1cccc(OCC(c2ccc(OC(C)C)cc2)N2Cc3cc(Cl)ccc3C2=O)n1 (stereo not drawn) [EU1180-510, 5-chloro-2-(1-(4-isopropoxyphenyl)-2-((6-methylpyridin-2-yl)oxy)ethyl)isoindolin-1-one]
